Experimental data: US8394969B2, “Cyclic benzimidazole derivatives useful as anti-diabetic agents” (Merck Sharp & Dohme Corp., priority 2008, dated 2013)
pEC50: −log10 of the molar value. Where a name gives a salt, the structure may show the parent alone.

molecular target: recombinant human AMPK complex 1 (containing α1β1γ1) (Homo sapiens, UniProt Q13131+Q9Y478); experiment: […] (in vitro AMPK activation assay); format: biochemical; settings: recombinant human AMPK complex 1 (α1β1γ1); basal activity subtracted; read-out: % Maximum AMP Activation of human AMPK Complex 1
Sequence (Q13131 whole entry): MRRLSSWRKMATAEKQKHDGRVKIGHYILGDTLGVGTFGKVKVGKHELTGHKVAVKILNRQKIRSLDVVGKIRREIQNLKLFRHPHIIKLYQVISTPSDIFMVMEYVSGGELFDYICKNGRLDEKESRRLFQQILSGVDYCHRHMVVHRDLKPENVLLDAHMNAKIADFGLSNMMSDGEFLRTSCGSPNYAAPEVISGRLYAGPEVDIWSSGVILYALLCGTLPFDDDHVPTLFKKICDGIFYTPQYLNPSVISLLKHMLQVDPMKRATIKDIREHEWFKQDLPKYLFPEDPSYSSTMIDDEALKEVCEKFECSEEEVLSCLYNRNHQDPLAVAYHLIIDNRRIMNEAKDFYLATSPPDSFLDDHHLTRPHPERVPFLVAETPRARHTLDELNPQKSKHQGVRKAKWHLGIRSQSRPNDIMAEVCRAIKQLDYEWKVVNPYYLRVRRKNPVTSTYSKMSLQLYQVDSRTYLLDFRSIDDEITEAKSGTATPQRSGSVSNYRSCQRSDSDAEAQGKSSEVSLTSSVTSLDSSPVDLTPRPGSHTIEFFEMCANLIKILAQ
Sequence (Q9Y478 whole entry): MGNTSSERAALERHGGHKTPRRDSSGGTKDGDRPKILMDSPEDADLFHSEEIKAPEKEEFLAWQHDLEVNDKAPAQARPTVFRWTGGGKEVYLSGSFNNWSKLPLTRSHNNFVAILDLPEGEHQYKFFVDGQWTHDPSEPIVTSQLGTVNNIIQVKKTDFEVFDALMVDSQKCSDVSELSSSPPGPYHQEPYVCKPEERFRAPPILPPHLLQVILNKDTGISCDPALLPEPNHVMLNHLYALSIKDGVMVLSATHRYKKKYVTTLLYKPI
Sequence (P54619 whole entry partner): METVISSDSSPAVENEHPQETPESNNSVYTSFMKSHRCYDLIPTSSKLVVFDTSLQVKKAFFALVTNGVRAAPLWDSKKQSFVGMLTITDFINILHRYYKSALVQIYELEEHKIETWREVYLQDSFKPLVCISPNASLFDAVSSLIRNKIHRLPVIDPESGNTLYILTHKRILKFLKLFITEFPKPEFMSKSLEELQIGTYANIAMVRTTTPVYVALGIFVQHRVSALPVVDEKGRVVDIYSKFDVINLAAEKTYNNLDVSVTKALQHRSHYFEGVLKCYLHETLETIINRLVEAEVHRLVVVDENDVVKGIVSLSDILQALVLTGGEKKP

| Structure (SMILES) | Emax |
| --- | --- |
| COc1ccc2cc(C#Cc3cc4nc(Oc5ccc(C)c(C(=O)O)c5)[nH]c4cc3Cl)ccc2c1 [Example 94, 5-[6-Chloro-5-(6-methoxy-naphthalen-2-ylethynyl)-1H-benzoimidazol-2-yloxy]-2-methyl-benzoic acid] | > 80% |
| Cc1ccc(Oc2nc3cc(-c4ccc5c(c4)c(C#N)cn5C)c(Cl)cc3[nH]2)cc1C(=O)O [Example 349, 2-(3-carboxy-4-methylphenoxy)-6-chloro-5-(3-cyano-1-methyl-1H-indol-5-yl)-1H-3,1-benzimidazol-3-ium trifluoroacetate] | > 80% |
| Cc1ccc(Oc2nc3cc(C#Cc4cccnc4)c(Cl)cc3[nH]2)cc1C(=O)O [Example 131, 5-(6-Chloro-5-pyridin-3-ylethynyl-1H-benzoimidazol-2-yloxy)-2-methyl-benzoic acid] | > 80% |
| Cc1cc(Oc2nc3cc(-c4ccc(-c5ccccc5)cc4)c(Cl)cc3[nH]2)cc(C(=O)O)c1C [Example 11, 5-(5-Biphenyl-4-yl-6-chloro-1H-benzoimidazol-2-yloxy)-2,3-dimethyl-benzoic acid] | > 80% |
| CN1CCOc2cc(-c3cc4nc(Oc5ccc(CC(=O)O)cc5)[nH]c4cc3Cl)ccc21 [Example 244, {4-[6-Chloro-5-(4-methyl-3,4-dihydro-2H-benzo[1,4]oxazin-7-yl)-1H-benzoimidazol-2-yloxy]-phenyl}-acetic acid] | > 80% |
| Cc1ccc(Oc2nc3cc(C#Cc4ccc(OC(F)(F)F)cc4)c(Cl)cc3[nH]2)cc1C(=O)O [Example 95, 5-[6-Chloro-5-(4-trifluoromethoxy-phenylethynyl)-1H-benzoimidazol-2-yloxy]-2-methyl-benzoic acid] | > 80% |
| NS(=O)(=O)c1cccc(Oc2nc3cc(-c4ccc(-c5ccccc5)cc4)c(Cl)cc3[nH]2)c1 [Example 220, 3-(5-Biphenyl-4-yl-6-chloro-1H-benzoimidazol-2-yloxy)-benzenesulfonamide] | > 80% |
| Cc1ccc(Oc2nc3cc(C#Cc4ccc(-n5cccn5)cc4)c(Cl)cc3[nH]2)cc1C(=O)O [Example 71, 5-[6-Chloro-5-(4-pyrazol-1-yl-phenylethynyl)-1H-benzoimidazol-2-yloxy]-2-methyl-benzoic acid] | > 80% |
| Cc1ccc(Oc2nc3cc(-c4ccc(N5CCOCC5)nc4)c(Cl)cc3[nH]2)cc1C(=O)O [Example 173, 5-[6-Chloro-5-(6-morpholin-4-yl-pyridin-3-yl)-1H-benzoimidazol-2-yloxy]-2-methyl-benzoic acid] | > 80% |
| NC(=O)Cc1cccc(Oc2nc3cc(C#Cc4ccccc4)c(Cl)cc3[nH]2)c1 [Example 23, 2-[3-(6-Chloro-5-phenylethynyl-1H-benzoimidazol-2-yloxy)-phenyl]-acetamide] | > 80% |
| Cc1ccc(Oc2nc3cc(-c4ccc5c(c4)N(C)CCN5C)c(Cl)cc3[nH]2)cc1C(=O)O [Example 362, 5-[6-chloro-5-(1,4-dimethyl-1,2,3,4-tetrahydro-quinoxalin-6-yl)-1H-benzoimidazol-2-yloxy]-2-methyl-benzoic acid] | > 80% |
| Cc1ccc(Oc2nc3cc(C#Cc4ccc(-c5cnc[nH]5)cc4)c(Cl)cc3[nH]2)cc1C(=O)O [Example 75, 5-{6-Chloro-5-[4-(3H-imidazol-4-yl)-phenylethynyl]-1H-benzoimidazol-2-yloxy}-2-methyl-benzoic acid] | > 80% |
| Cc1ccc(Oc2nc3cc(-c4ccc(-c5cccnc5)cc4)c(Cl)cc3[nH]2)cc1C(=O)O [Example 169, 5-[6-Chloro-5-(4-pyridin-3-yl-phenyl)-1H-benzoimidazol-2-yloxy]-2-methyl-benzoic acid] | > 80% |
| CCN1CCc2cc(-c3cc4nc(Oc5ccc(C)c(C(=O)O)c5)[nH]c4cc3Cl)ccc21 [Example 276, 5-[6-Chloro-5-(1-ethyl-2,3-dihydro-1H-indol-5-yl)-1H-benzoimidazol-2-yloxy]-2-methyl-benzoic acid] | > 80% |
| Cc1ccc(Oc2nc3cc(-c4ccc(N5CCCC5=O)cc4)c(Cl)cc3[nH]2)cc1C(=O)O [Example 350, 2-(3-carboxy-4-methylphenoxy)-6-chloro-5-[4-(2-oxopyrrolidin-1-yl)phenyl]-1H-3,1-benzimidazol-3-ium trifluoroacetate] | > 80% |
| Cc1cc(C)c(C(=O)O)cc1Oc1nc2cc(-c3ccc(-c4ccccc4)cc3)c(Cl)cc2[nH]1 [Example 208, 5-(5-Biphenyl-4-yl-6-chloro-1H-benzoimidazol-2-yloxy)-2,4-dimethyl-benzoic acid] | > 80% |
| Cc1ccc(Oc2nc3cc(-c4ccc(C(C)(C)N)cc4)c(Cl)cc3[nH]2)cc1C(=O)O [Example 297, 2-{4-[2-(3-carboxy-4-methylphenoxy)-6-chloro-1H-benzimidazol-5-yl]phenyl}propan-2-aminium trifluoroacetate] | > 80% |
| O=C1Cc2cc(Oc3nc4cc(-c5ccc(-c6ccccc6)cc5)c(Cl)cc4[nH]3)ccc2O1 [Example 16, 5-(5-Biphenyl-4-yl-6-chloro-1H-benzoimidazol-2-yloxy)-3H-benzofuran-2-one] | > 80% |

| Structure (SMILES) | Emax |
| --- | --- |
| COC(=O)c1cc(Oc2nc3cc(-c4ccc(-c5ccncc5)cc4)c(Cl)cc3[nH]2)ccc1C [Example 167, 5-[6-Chloro-5-(4-pyridin-4-yl-phenyl)-1H-benzoimidazol-2-yloxy]-2-methyl-benzoic acid methyl ester] | > 80% |
| Cc1ccc(Oc2nc3cc(C#CC4CCNC4)c(Cl)cc3[nH]2)cc1C(=O)O (stereo not drawn) [Example 138, 5-(6-Chloro-5-pyrrolidin-3-ylethynyl-1H-benzoimidazol-2-yloxy)-2-methyl-benzoic acid] | > 80% |
| Cc1ccc(Oc2nc3cc(C#CC(C)(C)O)c(Cl)cc3[nH]2)cc1C(=O)O [Example 154, 5-[6-Chloro-5-(3-hydroxy-3-methyl-but-1-ynyl)-1H-benzoimidazol-2-yloxy]-2-methyl-benzoic acid] | > 80% |
| Cc1ccc(Oc2nc3cc(-c4cccc5c4CCN5C(C)C)c(Cl)cc3[nH]2)cc1C(=O)O [Example 324, 5-{[6-chloro-5-(1-isopropyl-2,3-dihydro-1H-indol-4-yl)-1H-benzimidazol-2-yl]oxy}-2-methylbenzoic acid] | > 80% |
| COc1cccc(-c2ccc(-c3cc4nc(Oc5ccc(C)c(C(=O)O)c5)[nH]c4cc3Cl)cc2)c1 [Example 187, 5-{[6-chloro-5-(3′-methoxybiphenyl-4-yl)-1H-benzimidazol-2-yl]oxy}-2-methylbenzoic acid] | > 80% |
| Cc1ccc(Oc2nc3cc(-c4ccc5c(c4)C(C)(C)CCC5(C)C)c(Cl)cc3[nH]2)cc1C(=O)O [Example 358, 5-[6-Chloro-5-(5,5,8,8-tetramethyl-5,6,7,8-tetrahydro-naphthalen-2-yl)-1H-benzoimidazol-2-yloxy]-2-methyl-benzoic acid] | > 80% |
| O=C(NS(=O)(=O)c1ccccc1)c1cccc(Oc2nc3cc(-c4ccc(-c5ccccc5)cc4)c(Cl)cc3[nH]2)c1 [Example 222, N-[3-(5-Biphenyl-4-yl-6-chloro-1H-benzoimidazol-2-yloxy)-benzoyl]-benzenesulfonamide] | > 80% |
| COC(=O)c1cc(Oc2nc3cc(-c4ccc(-c5ccc(=O)n(C(F)F)c5)cc4)c(Cl)cc3[nH]2)ccc1C [Example 163, 5-{6-Chloro-5-[4-(1-difluoromethyl-6-oxo-1,6-dihydro-pyridin-3-yl)-phenyl]-1H-benzoimidazol-2-yloxy}-2-methyl-benzoic acid methyl ester] | > 80% |
| Cc1ccc(Oc2nc3cc(-c4ccc(CO)cc4)c(Cl)cc3[nH]2)cc1C(=O)O [Example 330, 2-(3-carboxy-4-methylphenoxy)-6-chloro-5-[4-(hydroxymethyl)phenyl]-1H-3,1-benzimidazol-3-ium trifluoroacetate] | > 80% |
| Cn1ccc2cc(-c3cc4nc(Oc5ccc(Cl)c(C(=O)O)c5)[nH]c4cc3Cl)ccc21 [Example 217, 2-Chloro-5-[6-chloro-5-(1-methyl-1H-indol-5-yl)-1H-benzoimidazol-2-yloxy]-benzoic acid] | > 80% |
| O=C(O)c1ccnc(Oc2nc3cc(-c4ccc(-c5ccccc5)cc4)c(Cl)cc3[nH]2)c1 [Example 215, 2-(5-Biphenyl-4-yl-6-chloro-1H-benzoimidazol-2-yloxy)-isonicotinic acid] | > 80% |
| Cc1ccc(Oc2nc3cc(-c4ccc5[nH]c(=O)ccc5c4)c(Cl)cc3[nH]2)cc1C(=O)O [Example 233, 5-[6-Chloro-5-(2-oxo-1,2-dihydro-quinolin-6-yl)-1H-benzoimidazol-2-yloxy]-2-methyl-benzoic acid] | > 80% |
| N#Cc1cccc(Oc2nc3cc(-c4ccc(-c5ccccc5)cc4)c(Cl)cc3[nH]2)c1 [Example 42, 3-(5-Biphenyl-4-yl-6-chloro-1H-benzoimidazol-2-yloxy)-benzonitrile] | > 80% |
| Cc1ccc(Oc2nc3cc(-c4cc5ccccc5s4)c(Cl)cc3[nH]2)cc1C(=O)O [Example 355, 5-(5-Benzo[b]thiophen-2-yl-6-chloro-1H-benzoimidazol-2-yloxy)-2-methyl-benzoic acid] | > 80% |
| Cc1ccc(Oc2nc3cc(-c4ccc(C(C)O)cc4)c(Cl)cc3[nH]2)cc1C(=O)O (stereo not drawn) [Example 156, 5-{6-Chloro-5-[4-(1-hydroxy-ethyl)-phenyl]-1H-benzoimidazol-2-yloxy}-2-methyl-benzoic acid] | > 80% |
| Cc1ccc(Oc2nc3cc(C#Cc4ccc(F)cc4)c(Cl)cc3[nH]2)cc1C(=O)O [Example 113, 5-[6-Chloro-5-(4-fluoro-phenylethynyl)-1H-benzoimidazol-2-yloxy]-2-methyl-benzoic acid] | > 80% |
| O=C(O)c1cc(Oc2nc3cc(C#Cc4ccccc4)c(Cl)cc3[nH]2)cc(C(=O)O)c1 [Example 48, 5-(6-Chloro-5-phenylethynyl-1H-benzoimidazol-2-yloxy)-isophthalic acid] | > 80% |

same assay, conditions: recombinant human AMPK complex 1 (α1β1γ1); read-out: EC50

| Structure (SMILES) | pEC50 |
| --- | --- |
| COc1ccc(-c2cc3nc(Oc4ccc(C)c(C(=O)O)c4)[nH]c3cc2Cl)c(F)c1 [Example 326, 5-{[6-chloro-5-(2-fluoro-4-methoxyphenyl)-1H-benzimidazol-2-yl]oxy}-2-methylbenzoic acid] | 8.00 |
